Where a name gives a salt, the structure may show the parent alone.
Tested on: dissociated bovine parathyroid cells
Assay: Stimulation of PTH secretion
Assay type: cell-based
Details: Bos taurus, 0.5 h, 0.5 mM Ca2+, 30 minutes
Method: This example illustrates the ability of different calcilytic compounds to exert a biological effect on PTH secretion. PTH secretion was determined using dissociated bovine parathyroid cells as described below for Compounds 32, 33, and 38. […] Stimulation of PTH secretion was assayed as follows: Parathyroid cell buffer (PCB) contains (mM): NaCl, 126; KCl, 4; MgSO4, 1; K2HPO4/KH2PO4, 0.7; Na-Hepes, pH 7.45, and variable amounts of CaCl2 as specified (reagent grade). PCB was typically supplemented with bovine serum albumin (BSA fraction V; ICN Biomedicals, Inc., Costa Mesa, Calif.; catalog #81-003) and 1 mg/mL of D-glucose (reagent grade) as indicated. Percoll purification buffer was prepared immediately before use by mixing 8 mL of Percoll (Pharmacia LKB, Alameda, Calif.; catalog #17-0891-01) and 7 mL of a twice-concentrated PCB solution without phosphate and containing 2 mM CaCl2. Parathyroid glands were obtained from calves within minutes of slaughter at an abattoir and shipped via overnight express on ice in PCB containing 1.25 mM CaCl2. The glands were trimmed and minced in ice-cold PCB containing 1.25 mM CaCl2, 1 mg/mL of D-glucose, and 2% BSA. […]

| SMILES | EC50 |
| --- | --- |
| COc1ccc(CC(C)(C)NC[C@@H](O)COc2ccccc2)cc1 (single isomer, unassigned) [Compound 32, (R) or (S)—N-(2-Hydroxy-3-phenoxypropyl)-1,1-dimethyl-2-(4-methoxyphenyl)ethylamine Hydrochloride] | < 10 µM |
| COc1ccc(CC(C)(C)NCC(O)COc2cccc(OC)c2)cc1 (centres unmarked) [Compound 38, N-[2-Hydroxy-3-(3-methoxyphenoxy)propyl]-1,1-dimethyl-2-(4-methoxyphenyl)ethylamine Hydrochloride] | < 10 µM |

Source: patent US7202261B2, “Calcilytic compounds” (NPS Pharmaceuticals, Inc., priority 1996, dated 2007)
